Test results taken from ChEMBL document CHEMBL4616705, “Computer-Aided Fragment Growing Strategies to Design Dual Inhibitors of Soluble Epoxide Hydrolase and LTA4 Hydrolase” (ACS Med Chem Lett, 2020).

Assays:
[1] = molecular target: T1, Bifunctional epoxide hydrolase 2 (Homo sapiens, UniProt P34913); test: (§1) Inhibition of recombinant human full length sEH (1 to 555 residues) expressed in Escherichia coli BL21 DE3 cells assessed as reduction in 6-methoxynaphthaldehyde formation using PHOME as substrate incubated for 45 mins followed by substrate addition and measured for 45 mins by fluorescence based assay
T1 sequence (P34913 whole entry): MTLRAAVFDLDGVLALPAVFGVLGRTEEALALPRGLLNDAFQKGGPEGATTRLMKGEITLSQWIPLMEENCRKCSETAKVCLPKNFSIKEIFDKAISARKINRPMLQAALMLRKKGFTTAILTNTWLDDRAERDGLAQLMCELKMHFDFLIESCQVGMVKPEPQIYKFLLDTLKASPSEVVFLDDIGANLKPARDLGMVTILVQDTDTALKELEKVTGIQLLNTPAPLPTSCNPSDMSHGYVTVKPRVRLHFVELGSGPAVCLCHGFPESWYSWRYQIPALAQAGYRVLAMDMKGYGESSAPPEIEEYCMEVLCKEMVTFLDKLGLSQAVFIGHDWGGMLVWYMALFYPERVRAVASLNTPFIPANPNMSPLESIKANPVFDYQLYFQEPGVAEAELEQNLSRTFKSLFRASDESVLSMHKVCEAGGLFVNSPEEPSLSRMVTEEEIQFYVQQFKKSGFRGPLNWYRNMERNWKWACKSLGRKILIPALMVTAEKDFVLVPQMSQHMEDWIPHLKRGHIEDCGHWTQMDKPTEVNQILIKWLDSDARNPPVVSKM

[2] = molecular target: T2, Bifunctional epoxide hydrolase 2 (Homo sapiens) (UniProt P34913); test: as §1, with “as substrate at 10 uM incubated for” for “as substrate incubated for”, “based assay relative to control” for “based assay”
T2 sequence (whole entry): T1 sequence (P34913 whole entry)

[3] = molecular target: T3, Leukotriene A-4 hydrolase (Homo sapiens, UniProt P09960); test: (§2) Inhibition of recombinant human full length C-terminal His6-tagged LTA4H expressed in Escherichia coli BL21 DE3 cells assessed as reduction in amino-4-methylcoumarin formation using L-arginine-7-amino-4-methylcoumarin as substrate incubated for 30 mins followed by substrate addition and measured for 30 mins by fluorescence based assay
T3 sequence (P09960 whole entry): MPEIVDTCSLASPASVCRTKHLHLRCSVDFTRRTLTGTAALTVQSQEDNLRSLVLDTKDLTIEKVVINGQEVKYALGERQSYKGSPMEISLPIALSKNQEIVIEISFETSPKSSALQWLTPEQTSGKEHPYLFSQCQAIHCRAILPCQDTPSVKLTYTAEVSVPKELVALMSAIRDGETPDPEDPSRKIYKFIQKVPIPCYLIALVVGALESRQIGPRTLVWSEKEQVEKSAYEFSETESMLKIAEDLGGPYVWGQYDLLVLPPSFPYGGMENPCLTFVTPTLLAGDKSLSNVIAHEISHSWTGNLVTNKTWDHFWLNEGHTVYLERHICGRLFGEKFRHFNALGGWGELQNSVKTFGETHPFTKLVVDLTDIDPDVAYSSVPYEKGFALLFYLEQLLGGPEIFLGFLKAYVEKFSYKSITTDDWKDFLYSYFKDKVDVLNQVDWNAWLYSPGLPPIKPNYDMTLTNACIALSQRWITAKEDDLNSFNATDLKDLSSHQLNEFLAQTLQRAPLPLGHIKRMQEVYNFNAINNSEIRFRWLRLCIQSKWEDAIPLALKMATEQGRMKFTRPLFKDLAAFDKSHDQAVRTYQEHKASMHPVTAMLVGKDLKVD

[4] = molecular target: T4, Leukotriene A-4 hydrolase (Homo sapiens) (UniProt P09960); test: as §2, with “as substrate at 10 uM incubated for” for “as substrate incubated for”, “based assay relative to control” for “based assay”
T4 sequence (whole entry): T3 sequence (P09960 whole entry)

SMILES | IC50 [1] [µM] | inhibition [2] [%] | IC50 [3] [µM] | inhibition [4] [%]
CCOP(=O)(OCC)c1ccc(NC(=O)CCc2ccc(OCc3ccccc3)cc2)cc1 | 4.7 |  |  | 
O=C(CCc1ccc(OCc2ccccc2)cc1)NCC1CCN(CCCc2ccccc2)CC1 |  | 7 | 18.3 | 
O=C(CCc1ccc(OCc2ccccc2)cc1)NCC1CCN(c2cccc(Br)c2)C1 (stereo not given) | 10 |  |  | 4
O=C(CCc1ccc(OCc2ccccc2)cc1)NCC1CCN(Cc2cccs2)CC1 | 0.5 |  |  | 
O=C(CCc1ccc(OCc2ccccc2)cc1)Nc1ccc(S(=O)(=O)NCC(F)(F)F)cc1 |  | 6 |  | 9
O=C(CCc1ccc(OCc2ccccc2)cc1)Nc1ccc(OCCN2CCCCCC2)cc1 | 16 |  |  | 16
O=C(CCc1ccc(OCc2ccccc2)cc1)NCCC1CCN(Cc2ccccc2)C1 (stereo not given) | 28 |  | 3.2 | 
O=C(CCc1ccc(OCc2ccccc2)cc1)Nc1ccc(CCN2CCOCC2)cc1 | 1.3 |  |  | 16
O=C(CCc1ccc(OCc2ccccc2)cc1)NCC1CCCN(CCc2ccccc2)C1 (stereo not given) | 15 |  |  | 
